Reference: US20230127944A1, “BROAD-SPECTRUM CARBAPENEMS” (priority 2019, published 2023)
Converted amounts (≈) assume the structure as drawn.

Tests used:
Assay type in all cases: cell-based
S. aureus USA 300 = assay: broth microdilution MIC assay, S. aureus USA300; details: Staphylococcus aureus; S. aureus USA300 (MRSA); read-out: MIC, S. aureus USA300
Description: (§1) To determine the ability of test compounds to inhibit the growth of bacterial strains, classic cell-based broth microdilution MIC assays were employed. MIC assays are performed according to CLSI methods except where otherwise noted (CLSI, 2011 and CLSI, 2009). The reference strains S. aureus ATCC 29213 (methicillin sensitive), S. aureus ATCC 33591 (methicillin-resistant), E. coli ATCC 25922 (wild-type/QC strain), P. aeruginosa ATCC 27853 (wild-type/QC strain), and the clinical isolate P. aeruginosa PA 8 were used to determine the ability of the exemplary carbapenem compounds to inhibit bacterial growth. An expanded panel of methicillin resistance S. aureus (MRSA) and Pseudomonas was also used to determine the ability of exemplary carbapenem compounds to inhibit bacterial growth across a broader representation of those species. To determine activity in MRSA and in addition to S. aureus ATCC 33591, S. aureus USA 300 and USA 600, some of the most common clones found to cause human infection, were also used. To further gauge the impact on the carbapenem compounds due to various resistance mechanisms in Pseudomonas, the following strains were included: P. aeruginosa 35151 (hyper-permeable strain), P. aeruginosa ΔmexAB-OprM (an efflux pump knockout), and P. aeruginosa Paβ-173 (a clinical isolate of reduced carbapenem susceptibility). Briefly, cryo-preserved bacterial cultures of clinical strains are streaked for isolation on appropriate agar medium, in this case Mueller Hinton II agar. Following incubation to allow formation of colonies, these plates are sealed with parafilm and stored refrigerated for up to two weeks. For preparation of assay inocula and to ensure low variability, at least 5 colonies are picked from the agar plates with an inoculating loop and aseptically transferred to a culture tube containing 3 mL of Mueller-Hinton Broth (supplemented with divalent cations to required levels based on Manufacturers' specification). The broth culture is grown for 3-5 hours at 37° C. with shaking at 200 rpm. Meanwhile, 2-fold serial dilutions of test compounds are conducted in a 96 well plate with a final volume of 75 μL per well at 2-fold the final desired concentration. After the dilution plates are set up the growing cultures are then diluted in a cuvette containing MH II broth and the optical density is measured at 600 nm. Inocula are diluted such that 75 μL of this culture in Mueller-Hinton Broth results in a starting bacterial concentration of 5×10^5 CFU/mL when added to the dilution plates. The plates are incubated 16-20 hours at 37° C. The MIC is read visually as the lowest concentration well with no bacterial growth.

[1] = test system: S. aureus ATCC 33591 (methicillin-resistant); assay: broth microdilution MIC assay, S. aureus 33591; details: Staphylococcus aureus, ATCC33591; S. aureus 33591, methicillin-resistant; read-out: MIC, S. aureus 33591
Description: as §1

[2] = test system: P. aeruginosa 35151 (hyper-permeable strain); assay: broth microdilution MIC assay, P. aeruginosa 35151; details: Pseudomonas aeruginosa, read-out: MIC, P. aeruginosa 35151
Description: as §1

[3] = test system: P. aeruginosa ΔmexAB-OprM (an efflux pump knockout); assay: broth microdilution MIC assay, P. aeruginosa ΔmexAB-OprM; details: Pseudomonas aeruginosa, read-out: MIC, P. aeruginosa ΔmexAB-OprM
Description: as §1

P. aeruginosa Paeβ-17 = assay: broth microdilution MIC assay, P. aeruginosa Paeβ-17; details: Pseudomonas aeruginosa, read-out: MIC, P. aeruginosa Paeβ-17
Description: as §1

[4] = test system: P. aeruginosa ATCC 27853 (wild-type/QC strain); assay: broth microdilution MIC assay, P. aeruginosa 27853; details: Pseudomonas aeruginosa, ATCC27853; read-out: MIC, P. aeruginosa 27853
Description: as §1

S. aureus USA 600 = assay: broth microdilution MIC assay, S. aureus USA600; details: Staphylococcus aureus; S. aureus USA600 (MRSA); read-out: MIC, S. aureus USA600
Description: as §1

[5] = test system: E. coli ATCC 25922 (wild-type/QC strain); assay: broth microdilution MIC assay, E. coli 25922; details: Escherichia coli, ATCC25922; read-out: MIC, E. coli 25922
Description: as §1

Row | Structure (SMILES) | MIC (S. aureus USA 300) | MIC [1] | MIC [2] | MIC [3] | MIC (P. aeruginosa Paeβ-17) | MIC [4] | MIC (S. aureus USA 600) | MIC [5]
1 | C[C@@H](O)[C@H]1C(=O)N2C(C(=O)O)=C(SC3CN([C@@H]4CC[C@H](NC(=N)N)C4)C3)[C@H](C)[C@H]12 [Example 12, (4R,5S,6S)-3-((1-((1R,3S)-3-guanidinocyclopentyl)azetidin-3-yl)thio)-6-((R)-1-hydroxyethyl)-4-methyl-7-oxo-1-azabicyclo[3.2.0]hept-2-ene-2-carboxylic acid] | 1 to 4 µg/mL (≈ 2.36 to 9.44 µM) | 1 to 4 µg/mL (≈ 2.36 to 9.44 µM) | < 1 µg/mL | 1 to 4 µg/mL (≈ 2.36 to 9.44 µM) | 8 to 32 µg/mL (≈ 18.9 to 75.6 µM) | 1 to 4 µg/mL (≈ 2.36 to 9.44 µM) | 1 to 4 µg/mL (≈ 2.36 to 9.44 µM) | < 1 µg/mL
2 | C[C@@H](O)[C@H]1C(=O)N2C(C(=O)O)=C(SC3CN([C@H]4CCC[C@H](N)C4)C3)[C@H](C)[C@H]12 [Example 13, (4R,5S,6S)-3-((1-((1S,3S)-3-aminocyclohexyl)azetidin-3-yl)thio)-6-((R)-1-hydroxyethyl)-4-methyl-7-oxo-1-azabicyclo[3.2.0]hept-2-ene-2-carboxylic acid] | 1 to 4 µg/mL (≈ 2.53 to 10.1 µM) | 8 to 32 µg/mL (≈ 20.2 to 80.9 µM) | < 1 µg/mL | 1 to 4 µg/mL (≈ 2.53 to 10.1 µM) | 8 to 32 µg/mL (≈ 20.2 to 80.9 µM) | 8 to 32 µg/mL (≈ 20.2 to 80.9 µM) | 1 to 4 µg/mL (≈ 2.53 to 10.1 µM) | < 1 µg/mL
3 | C[C@@H](O)[C@H]1C(=O)N2C(C(=O)O)=C(SC3CN([C@@H]4CCC[C@H](N)C4)C3)[C@H](C)[C@H]12 [Example 14, (4R,5S,6S)-3-((1-((1R,3S)-3-aminocyclohexyl)azetidin-3-yl)thio)-6-((R)-1-hydroxyethyl)-4-methyl-7-oxo-1-azabicyclo[3.2.0]hept-2-ene-2-carboxylic acid] | 1 to 4 µg/mL (≈ 2.53 to 10.1 µM) | 1 to 4 µg/mL (≈ 2.53 to 10.1 µM) | < 1 µg/mL | 1 to 4 µg/mL (≈ 2.53 to 10.1 µM) | 8 to 32 µg/mL (≈ 20.2 to 80.9 µM) | 1 to 4 µg/mL (≈ 2.53 to 10.1 µM) | 1 to 4 µg/mL (≈ 2.53 to 10.1 µM) | < 1 µg/mL
4 | C[C@@H](O)[C@H]1C(=O)N2C(C(=O)O)=C(SC3CN([C@H]4CCC[C@@H](N)C4)C3)[C@H](C)[C@H]12 [Example 15, (4R,5S,6S)-3-((1-((1S,3R)-3-aminocyclohexyl)azetidin-3-yl)thio)-6-((R)-1-hydroxyethyl)-4-methyl-7-oxo-1-azabicyclo[3.2.0]hept-2-ene-2-carboxylic acid] | 1 to 4 µg/mL (≈ 2.53 to 10.1 µM) | 8 to 32 µg/mL (≈ 20.2 to 80.9 µM) | < 1 µg/mL | 1 to 4 µg/mL (≈ 2.53 to 10.1 µM) | 8 to 32 µg/mL (≈ 20.2 to 80.9 µM) | 1 to 4 µg/mL (≈ 2.53 to 10.1 µM) | 1 to 4 µg/mL (≈ 2.53 to 10.1 µM) | < 1 µg/mL
5 | C[C@@H](O)[C@H]1C(=O)N2C(C(=O)O)=C(SC3CN([C@@H]4CCC[C@@H](N)C4)C3)[C@H](C)[C@H]12 [Example 16, (4R,5S,6S)-3-((1-((1R,3R)-3-aminocyclohexyl)azetidin-3-yl)thio)-6-((R)-1-hydroxyethyl)-4-methyl-7-oxo-1-azabicyclo[3.2.0]hept-2-ene-2-carboxylic acid] | 1 to 4 µg/mL (≈ 2.53 to 10.1 µM) | 8 to 32 µg/mL (≈ 20.2 to 80.9 µM) | < 1 µg/mL | 1 to 4 µg/mL (≈ 2.53 to 10.1 µM) | 8 to 32 µg/mL (≈ 20.2 to 80.9 µM) | 8 to 32 µg/mL (≈ 20.2 to 80.9 µM) | 1 to 4 µg/mL (≈ 2.53 to 10.1 µM) | < 1 µg/mL
6 | C[C@@H](O)[C@H]1C(=O)N2C(C(=O)O)=C(SC3CN(Cc4cnc(N)nc4)C3)[C@H](C)[C@H]12 [Example 22, (4R,5S,6S)-3-((1-((2-aminopyrimidin-5-yl)methyl)azetidin-3-yl)thio)-6-((R)-1-hydroxyethyl)-4-methyl-7-oxo-1-azabicyclo[3.2.0]hept-2-ene-2-carboxylic acid] | 1 to 4 µg/mL (≈ 2.47 to 9.86 µM) | 8 to 32 µg/mL (≈ 19.7 to 78.9 µM) | < 1 µg/mL | 1 to 4 µg/mL (≈ 2.47 to 9.86 µM) | > 32 µg/mL | 8 to 32 µg/mL (≈ 19.7 to 78.9 µM) | 1 to 4 µg/mL (≈ 2.47 to 9.86 µM) | < 1 µg/mL
7 | C[C@@H](O)[C@H]1C(=O)N2C(C(=O)O)=C(SC3CN(Cc4ccc(N)nc4)C3)[C@H](C)[C@H]12 [Example 23, (4R,5S,6S)-3-((1-((6-aminopyridin-3-yl)methyl)azetidin-3-yl)thio)-6-((R)-1-hydroxyethyl)-4-methyl-7-oxo-1-azabicyclo[3.2.0]hept-2-ene-2-carboxylic acid] | 1 to 4 µg/mL (≈ 2.47 to 9.89 µM) | 8 to 32 µg/mL (≈ 19.8 to 79.1 µM) | < 1 µg/mL | 1 to 4 µg/mL (≈ 2.47 to 9.89 µM) | > 32 µg/mL | 8 to 32 µg/mL (≈ 19.8 to 79.1 µM) | 1 to 4 µg/mL (≈ 2.47 to 9.89 µM) | < 1 µg/mL
8 | C[C@@H](O)[C@H]1C(=O)N2C(C(=O)O)=C(S[C@@H]3CCN(Cc4cnc(N)nc4)C3)[C@H](C)[C@H]12 [Example 24, (4R,5S,6S)-3-(((R)-1-((2-aminopyrimidin-5-yl)methyl)pyrrolidin-3-yl)thio)-6-((R)-1-hydroxyethyl)-4-methyl-7-oxo-1-azabicyclo[3.2.0]hept-2-ene-2-carboxylic acid] | 1 to 4 µg/mL (≈ 2.38 to 9.54 µM) | 8 to 32 µg/mL (≈ 19.1 to 76.3 µM) | < 1 µg/mL | 1 to 4 µg/mL (≈ 2.38 to 9.54 µM) | > 32 µg/mL | 8 to 32 µg/mL (≈ 19.1 to 76.3 µM) | 1 to 4 µg/mL (≈ 2.38 to 9.54 µM) | < 1 µg/mL
9 | C[C@@H](O)[C@H]1C(=O)N2C(C(=O)O)=C(S[C@@H]3CCN(Cc4ccc(N)nc4)C3)[C@H](C)[C@H]12 [Example 25, (4R,5S,6S)-3-(((R)-1-((6-aminopyridin-3-yl)methyl)pyrrolidin-3-yl)thio)-6-((R)-1-hydroxyethyl)-4-methyl-7-oxo-1-azabicyclo[3.2.0]hept-2-ene-2-carboxylic acid] | 1 to 4 µg/mL (≈ 2.39 to 9.56 µM) | 8 to 32 µg/mL (≈ 19.1 to 76.5 µM) | < 1 µg/mL | 1 to 4 µg/mL (≈ 2.39 to 9.56 µM) | > 32 µg/mL | 8 to 32 µg/mL (≈ 19.1 to 76.5 µM) | 1 to 4 µg/mL (≈ 2.39 to 9.56 µM) | < 1 µg/mL
10 | C[C@@H](O)[C@H]1C(=O)N2C(C(=O)O)=C(SC3CN(CC4CCN(C(=N)N)CC4)C3)[C@H](C)[C@H]12 [Example 26, (4R,5S,6S)-3-((1-((1-carbamimidoylpiperidin-4-yl)methyl)azetidin-3-yl)thio)-6-((R)-1-hydroxyethyl)-4-methyl-7-oxo-1-azabicyclo[3.2.0]hept-2-ene-2-carboxylic acid] | 1 to 4 µg/mL (≈ 2.29 to 9.14 µM) | 1 to 4 µg/mL (≈ 2.29 to 9.14 µM) | < 1 µg/mL | < 1 µg/mL | 8 to 32 µg/mL (≈ 18.3 to 73.1 µM) | 1 to 4 µg/mL (≈ 2.29 to 9.14 µM) | 1 to 4 µg/mL (≈ 2.29 to 9.14 µM) | < 1 µg/mL
11 | C[C@@H](O)[C@H]1C(=O)N2C(C(=O)O)=C(S[C@@H]3CCN([C@H]4CC[C@H](NC(=N)N)CC4)C3)[C@H](C)[C@H]12 [Example 27, (4R,5S,6S)-3-(((R)-1-((1R,4R)-4-guanidinocyclohexyl)pyrrolidin-3-yl)thio)-6-((R)-1-hydroxyethyl)-4-methyl-7-oxo-1-azabicyclo[3.2.0]hept-2-ene-2-carboxylic acid] | 1 to 4 µg/mL (≈ 2.21 to 8.86 µM) | 1 to 4 µg/mL (≈ 2.21 to 8.86 µM) | < 1 µg/mL | 1 to 4 µg/mL (≈ 2.21 to 8.86 µM) | 8 to 32 µg/mL (≈ 17.7 to 70.9 µM) | 8 to 32 µg/mL (≈ 17.7 to 70.9 µM) | 1 to 4 µg/mL (≈ 2.21 to 8.86 µM) | < 1 µg/mL
